Measured values from patent US8809341B2, “2,4-pyrimidinediamine compounds and uses as anti-proliferative agents” (Rigel Pharmaceuticals, Inc., priority 2003, dated 2014).

Legend:
A549 cells = test: in vitro antiproliferation assay, A549 (lung); type: cell-based; details: A549 (lung) cells
How it was run: (§1)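 IC50 values came from standard antiproliferation testing in cultured tumour cells; the A549 and H1299 lines are of lung origin.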

H1299 cells = test: in vitro antiproliferation assay, H1299 (lung); type: cell-based; details: H1299 (lung) cells
How it was run: as §1

Compound	IC50 (A549 cells; in vitro antiproliferation) [µM]	IC50 (H1299 cells; in vitro antiproliferation) [µM]	IC50 (A549 cells; antiproliferation) [µM]	IC50 (H1299 cells; antiproliferation) [µM]
COc1cc(OC)cc(N(C)c2nc(Nc3ccc(OC)c(Cl)c3)ncc2F)c1 [compound 853]	> 20	> 20		
COc1cc(OC)cc(N(C)c2nc(Nc3ccc(Cl)c(OC)c3)ncc2F)c1 [compound 854]	> 20	> 20		
COc1cc(Nc2ncc(F)c(Nc3ccc(OC)c(OC)c3)n2)cc(OC)c1 [compound 856]	≤ 20	≤ 20		
COc1cc(Nc2nc(Nc3cccc(N4CCN(C(C)=O)CC4)c3)ncc2F)cc(OC)c1 [compound 861]	≤ 20	≤ 20		
COc1ccc(Nc2nc(Nc3cccc(N4CCN(C(C)=O)CC4)c3)ncc2F)cc1OC [compound 862]	≤ 20	≤ 20		
COc1ccc(Nc2nc(Nc3ccc(N4CCN(C(C)=O)CC4)cc3)ncc2F)cc1OC [compound 863]	≤ 20	≤ 20		
COc1ccc(N(C)c2nc(Nc3cc(C)cc(C)c3)ncc2F)cc1OC [compound 864]	≤ 20	≤ 20		
COc1cc(Nc2ncc(F)c(N(C)c3ccc(OC)c(OC)c3)n2)cc(OC)c1 [compound 865]	≤ 20	≤ 20		
COc1cc(Nc2nc(Nc3ccc(N4CCN(C(C)=O)CC4)cc3)ncc2F)cc(OC)c1 [compound 866]	≤ 20	≤ 20		
COc1ccc(N(C)c2nc(Nc3cccc(-c4cnco4)c3)ncc2F)cc1OC [compound 867]	> 20	≤ 20		
CNC(=O)COc1cccc(Nc2ncc(F)c(N(C)c3ccc(OC)c(OC)c3)n2)c1 [compound 870]			> 20	> 20
CNC(=O)c1ccc(Nc2ncc(F)c(Nc3ccc(OC)c(OC)c3)n2)cc1Cl [compound 871]			≤ 20	≤ 20
CNC(=O)c1ccc(Nc2ncc(F)c(Nc3cc(OC)cc(OC)c3)n2)cc1Cl [compound 872]			≤ 20	≤ 20
CNC(=O)c1ccc(Nc2ncc(F)c(N(C)c3ccc(OC)c(OC)c3)n2)cc1Cl [compound 875]			≤ 20	≤ 20
CNS(=O)(=O)c1ccc(Nc2ncc(F)c(Nc3ccc(OC)c(OC)c3)n2)cc1OC [compound 879]			≤ 20	≤ 20
CNS(=O)(=O)c1ccc(Nc2ncc(F)c(Nc3cc(OC)cc(OC)c3)n2)cc1OC [compound 880]			≤ 20	≤ 20
CNS(=O)(=O)c1ccc(Nc2nc(Nc3cc(OC)cc(OC)c3)ncc2F)cc1OC [compound 884]			≤ 20	≤ 20
Oc1cccc(Nc2nc(Nc3cccc(-c4ncco4)c3)ncc2F)c1 [compound 885]			≤ 20	≤ 20
COc1ccc(Nc2nc(Nc3cccc(-c4ncon4)c3)ncc2F)cc1OC [compound 886]			≤ 20	≤ 20
COC(=O)c1cc(Nc2ncc(F)c(Nc3ccc(OC)c(OC)c3)n2)cc(-c2ncco2)c1 [compound 887]			≤ 20	≤ 20
CC(=O)c1cc(Nc2ncc(F)c(Nc3cccc(O)c3)n2)cc(-c2ncco2)c1 [compound 888]			≤ 20	≤ 20
COc1ccc(Nc2nc(Nc3cc(-c4ncco4)cc(C(F)(F)F)c3)ncc2F)cc1OC [compound 889]			≤ 20	≤ 20
Oc1cccc(Nc2nc(Nc3cccc(-c4ncon4)c3)ncc2F)c1 [compound 890]			≤ 20	≤ 20

Compound	IC50 (A549 cells; in vitro antiproliferation) [µM]	IC50 (H1299 cells; in vitro antiproliferation) [µM]	IC50 (A549 cells; antiproliferation) [µM]	IC50 (H1299 cells; antiproliferation) [µM]
COC(=O)c1cc(Nc2ncc(F)c(Nc3cc(C(=O)OC)cc(-c4ncco4)c3)n2)cc(-c2ncco2)c1 [compound 891]			> 20	> 20
Fc1cnc(Nc2cc(-c3ncco3)cc(C(F)(F)F)c2)nc1Nc1cc(-c2ncco2)cc(C(F)(F)F)c1 [compound 892]			≤ 20	≤ 20
Cc1cc(Nc2ncc(F)c(Nc3ccc(N4CCN(C)CC4)c(C)c3)n2)ccc1N1CCN(C)CC1 [compound 894]			≤ 20	≤ 20
COc1cc(Nc2ncc(F)c(Nc3cc(C)cc(C)c3)n2)cc(OC)c1OC [compound 895]			≤ 20	≤ 20
Cc1cc(C)cc(Nc2nc(Nc3cc(C)c(Cl)c(Cl)c3)ncc2F)c1 [compound 896]			≤ 20	≤ 20
Cc1cc(C)cc(Nc2nc(Nc3cc(CO)cc(CO)c3)ncc2F)c1 [compound 897]			≤ 20	≤ 20
Cc1cc(C)cc(Nc2nc(Nc3cc(Cl)cc(Cl)c3)ncc2F)c1 [compound 898]			> 20	> 20
Cc1cc(C)cc(Nc2nc(Nc3cc(Cl)c(Cl)c(Cl)c3)ncc2F)c1 [compound 899]			≤ 20	≤ 20
Cc1cc(C)cc(Nc2nc(Nc3cc(C)c(Cl)c(C)c3)ncc2F)c1 [compound 900]			> 20	> 20
CNC(=O)COc1c(C)cc(Nc2ncc(F)c(Nc3cc(OC)cc(OC)c3)n2)cc1C [compound 902]			≤ 20	≤ 20
COc1cc(Nc2ncc(F)c(N(C)c3ccc(OC)c(Cl)c3)n2)cc(OC)c1 [compound 903]			≤ 20	≤ 20
COc1ccc(N(C)c2nc(Nc3cc(C)c(OC)c(Cl)c3)ncc2F)cc1Cl [compound 904]			> 20	> 20
CNC(=O)COc1c(C)cc(Nc2ncc(F)c(N(C)c3ccc(OC)c(Cl)c3)n2)cc1C [compound 905]			≤ 20	≤ 20
CNC(=O)COc1cccc(Nc2ncc(F)c(N(C)c3ccc(OC)c(Cl)c3)n2)c1 [compound 906]			≤ 20	≤ 20
COc1ccc(N(C)c2nc(Nc3ccc(C)cc3)ncc2F)cc1Cl [compound 907]			> 20	≤ 20
COc1cc(N(C)c2nc(Nc3cc(C)cc(C)c3)ncc2F)ccc1Cl [compound 909]			≤ 20	≤ 20
CNC(=O)COc1cccc(Nc2ncc(F)c(N(C)c3ccc(Cl)c(OC)c3)n2)c1 [compound 910]			≤ 20	> 20
Cc1cc(C)cc(Nc2ncc(F)c(N(C)c3cc(C)c(Cl)c(C)c3)n2)c1 [compound 912]			> 20	> 20
CNC(=O)COc1cccc(Nc2ncc(F)c(N(C)c3cc(C)c(Cl)c(C)c3)n2)c1 [compound 913]			≤ 20	≤ 20
Cc1cc(N(C)c2nc(Nc3cccc(-c4cnco4)c3)ncc2F)cc(C)c1Cl [compound 914]			> 20	> 20
CNC(=O)COc1ccc(Nc2nc(Nc3ccc(OC)c(Cl)c3)ncc2F)cc1Cl [compound 917]			≤ 20	≤ 20
CNC(=O)c1ccc(Nc2ncc(F)c(N(C)c3cc(C)c(Cl)c(C)c3)n2)cc1Cl [compound 921]			≤ 20	≤ 20
COc1cc(Nc2nc(Nc3cccc(-c4ncco4)c3)ncc2F)cc(OC)c1OC [compound 932]			≤ 20	≤ 20

Compound	IC50 (A549 cells; in vitro antiproliferation) [µM]	IC50 (H1299 cells; in vitro antiproliferation) [µM]	IC50 (A549 cells; antiproliferation) [µM]	IC50 (H1299 cells; antiproliferation) [µM]
COc1ccc(Nc2ncc(F)c(Nc3ccc(OCCCN4CCOCC4)c(C)c3)n2)cc1OC [compound 945]			≤ 20	≤ 20
CCOC(=O)COc1cccc(Nc2ncc(F)c(Nc3cc(C)c(O)c(Cl)c3)n2)c1 [compound 952]			> 20	≤ 20
CC(C)c1cccc(Nc2ncc(F)c(Nc3cccc(C(C)C)c3)n2)c1 [compound 968]			> 20	≤ 20
COc1ccc(Nc2ncc(F)c(Nc3cccc(O)c3)n2)cc1OC [compound 969]			≤ 20	≤ 20
CNC(=O)COc1cccc(Nc2ncc(F)c(Nc3cccc(CN)c3)n2)c1 [compound 970]			≤ 20	≤ 20
NC(=O)COc1ccc(Nc2nc(Nc3cccc(O)c3)ncc2F)cc1 [compound 974]			≤ 20	≤ 20
O=C(COc1cccc(Nc2ncc(F)c(Nc3ccc(N4CCOCC4)cc3)n2)c1)NC1CC1 [compound 988]			≤ 20	≤ 20
COC(=O)COc1cccc(Nc2ncc(F)c(Nc3ccc(N4CCOCC4)cc3)n2)c1 [compound 989]			≤ 20	≤ 20
O=C(COc1cccc(Nc2ncc(F)c(Nc3ccc(N4CCOCC4)cc3)n2)c1)NC1CCC1 [compound 990]			≤ 20	≤ 20
CNC(=O)COc1cccc(Nc2ncc(F)c(Nc3ccc(N4CCOCC4)cc3)n2)c1 [compound 992]			> 20	> 20
CNC(=O)COc1cccc(Nc2ncc(F)c(Nc3ccc(N4CCN(C(=O)OC)CC4)cc3)n2)c1 [compound 993]			≤ 20	≤ 20
Fc1cnc(Nc2cccc(-c3ncco3)c2)nc1Nc1cccc(-c2ncco2)c1 [compound 995]			≤ 20	≤ 20
CCOC(=O)COc1cccc(Nc2ncc(F)c(Nc3cc(Cl)c(O)c(Cl)c3)n2)c1 [compound 999]			> 20	> 20
O=C(COc1cccc(Nc2ncc(F)c(Nc3cc(Cl)c(O)c(Cl)c3)n2)c1)N1CCNCC1 [compound 1001]			> 20	> 20
CC(C)(C)OC(=O)NCc1ccc(Nc2ncc(F)c(Nc3ccc(CNC(=O)OC(C)(C)C)cc3)n2)cc1 [compound 1012]			≤ 20	≤ 20
NCc1ccc(Nc2ncc(F)c(Nc3ccc(CN)cc3)n2)cc1 [compound 1013]			≤ 20	≤ 20
CC(C)(C)OC(=O)NCc1cccc(Nc2ncc(F)c(Nc3cccc(CNC(=O)OC(C)(C)C)c3)n2)c1 [compound 1015]			≤ 20	≤ 20
CCN(CC)CCNC(=O)c1ccc(Nc2ncc(F)c(Nc3ccc(OC)c(Cl)c3)n2)cc1 [compound 1021]			≤ 20	≤ 20
COc1ccc(Nc2nc(Nc3ccc(C(N)=O)cc3)ncc2F)cc1Cl [compound 1022]			≤ 20	≤ 20
COc1ccc(Nc2nc(Nc3ccc(CNC(=O)OC(C)(C)C)cc3)ncc2F)cc1Cl [compound 1023]			≤ 20	≤ 20
CNC(=O)COc1ccc(Nc2ncc(F)c(Nc3ccc(OC)c(Cl)c3)n2)cc1 [compound 1025]			> 20	≤ 20
